Experimental data from patent US11912790B2, “Peptide compounds and therapeutic uses of same” (Immunity Pharma Ltd., priority 2018, dated 2024).
“Also recorded” adds a separate entry of the source. No end group written: not given here.

Columns and labels:
BALB/c mice [1] = test: Dexamethasone-induced spleen and thymus weight and cell count loss in mice, Example 1 (FIG. 1); type: in vivo, mouse; conditions: 100 μg Dexamethasone IP; for reduction of cell count loss (spleen and thymus) / reduction of the amount of dexamethasone-induced spleen and/or thymus weight loss: BALB/c mice, peptide IV 250 or 400 μg/mouse immediately and 24 h after, sacrifice at 48 h, no difference between the 2 doses
Description: The peptides described herein are capable of reducing the amount of dexamethasone-induced spleen and/or thymus weight loss in a mouse—e.g. following injection (IP) with 100 μg of Dexamethasone.
(§1) Dexamethasone is a corticosteroid medication that induces apoptosis of immune cells and lymphomyeloid tissues. BALB/c mice were used to examine the ability of candidate peptides to rescue lymphocyte cells from apoptosis. Mice were injected IP with 100 μg of Dexamethasone. Dexamethasone-treated mice received immediately following and 24-hours after dexamethasone treatment IV injection of candidate peptides (250 or 400 μg peptide/mouse). Mice were sacrificed 48 hours after the first treatment. The spleen and the thymus were weighted and full cell count of both organs was performed.

BALB/c mice [2] = test: Dexamethasone-induced spleen and thymus weight and cell count loss in mice, Example 2 (FIG. 2); type: in vivo; conditions: 100 μg Dexamethasone IP, peptide IV 200 μg/mouse immediately and 24 h after, sacrifice at 48 h
Description: as §1, with “BALB/c” for “Dexamethasone is a corticosteroid medication that induces apoptosis of immune cells and lymphomyeloid tissues. BALB/c”, “(200” for “(250 or 400”

Compound | spleen and thymus weight loss and reduction in spleen cell count induced by dexamethasone (BALB/c mice [1]; 48 h, compared to normal mice) | thymus cell count reduction induced by dexamethasone (BALB/c mice [1]; 48 h, compared to normal mice) | reduction of cell count loss (spleen and thymus) (BALB/c mice [1]) | reduction of the amount of dexamethasone-induced spleen and/or thymus weight loss (BALB/c mice [1]) | reduction of the amount of dexamethasone-induced spleen and/or thymus weight loss (BALB/c mice [2])
C[C@@H]1C[C@H]2[C@@H]3CCC4=CC(=O)C=C[C@]4(C)[C@@]3(F)[C@@H](O)C[C@]2(C)[C@@]1(O)C(=O)CO [Dexamethasone, reference compound] | about 50% | ~80% | – | – | –
LPPLAYP [SEQ ID NO: 4] | – | – | significant effect | significant effect; also recorded: significantly reduced | –
PPLAYP [SEQ ID NO: 18] | – | – | – | – | significant improvement
PPLPY (not fully specified (C-terminus)) [SEQ ID NO: 3] | – | – | significant effect | significant effect; also recorded: significantly reduced | –
